The values below come from ChEMBL document CHEMBL1137443, “Preparation of 4-aryl-2-trifluoromethylbenzonitrile derivatives as androgen receptor antagonists for topical suppression of sebum production” (Bioorg Med Chem Lett, 2007).

One experiment has as its system Syrian golden hamster. In words: Reduction of wax ester in Golden Syrian hamster ear model relative to control. The format is functional, Mesocricetus auratus. Also on record: scale not given: the % may be the effect or the level left.
In experiment [1] the target is T1, Androgen receptor (Homo sapiens, UniProt P10275).
T1 sequence (P10275 whole entry): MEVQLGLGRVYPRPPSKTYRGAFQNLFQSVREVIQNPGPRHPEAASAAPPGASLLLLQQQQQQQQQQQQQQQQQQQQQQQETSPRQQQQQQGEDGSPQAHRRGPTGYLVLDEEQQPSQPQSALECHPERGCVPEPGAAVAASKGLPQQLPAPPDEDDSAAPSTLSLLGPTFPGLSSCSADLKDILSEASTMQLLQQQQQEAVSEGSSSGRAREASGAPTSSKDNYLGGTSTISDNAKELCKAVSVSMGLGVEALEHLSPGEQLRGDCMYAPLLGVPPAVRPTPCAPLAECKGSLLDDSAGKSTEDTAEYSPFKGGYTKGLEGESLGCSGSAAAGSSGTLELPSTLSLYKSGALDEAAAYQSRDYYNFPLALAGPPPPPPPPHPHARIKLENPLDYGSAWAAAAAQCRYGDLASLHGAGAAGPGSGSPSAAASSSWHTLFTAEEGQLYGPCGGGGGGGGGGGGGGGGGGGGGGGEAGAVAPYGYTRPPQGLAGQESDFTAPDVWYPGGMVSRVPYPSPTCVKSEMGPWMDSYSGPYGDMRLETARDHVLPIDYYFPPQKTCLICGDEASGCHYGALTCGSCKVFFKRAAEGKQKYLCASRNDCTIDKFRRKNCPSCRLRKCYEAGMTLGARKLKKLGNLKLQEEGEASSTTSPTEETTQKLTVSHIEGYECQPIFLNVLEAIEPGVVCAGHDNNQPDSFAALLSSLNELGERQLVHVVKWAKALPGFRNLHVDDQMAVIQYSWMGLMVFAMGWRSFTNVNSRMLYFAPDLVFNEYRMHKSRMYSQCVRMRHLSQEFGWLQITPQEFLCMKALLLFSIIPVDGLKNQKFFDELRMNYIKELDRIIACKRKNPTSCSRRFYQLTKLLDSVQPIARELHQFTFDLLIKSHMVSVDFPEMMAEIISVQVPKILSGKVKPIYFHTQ
The experiment is described as follows: Displacement of [3H]DHT from human recombinant AR expressed in Sf9 cells. (In general: Loss of bound radioactivity is the signal in a displacement assay; it reports binding, not function.)

For experiment [2], the target named is T1, Androgen receptor. In words: Antagonist activity at human AR in MDA-MB453-MMTV-luci cells by functional assay. The format is cell-based.
The next experiment concerns the target T2, Progesterone receptor (Homo sapiens, UniProt P06401).
T2 sequence (P06401 whole entry): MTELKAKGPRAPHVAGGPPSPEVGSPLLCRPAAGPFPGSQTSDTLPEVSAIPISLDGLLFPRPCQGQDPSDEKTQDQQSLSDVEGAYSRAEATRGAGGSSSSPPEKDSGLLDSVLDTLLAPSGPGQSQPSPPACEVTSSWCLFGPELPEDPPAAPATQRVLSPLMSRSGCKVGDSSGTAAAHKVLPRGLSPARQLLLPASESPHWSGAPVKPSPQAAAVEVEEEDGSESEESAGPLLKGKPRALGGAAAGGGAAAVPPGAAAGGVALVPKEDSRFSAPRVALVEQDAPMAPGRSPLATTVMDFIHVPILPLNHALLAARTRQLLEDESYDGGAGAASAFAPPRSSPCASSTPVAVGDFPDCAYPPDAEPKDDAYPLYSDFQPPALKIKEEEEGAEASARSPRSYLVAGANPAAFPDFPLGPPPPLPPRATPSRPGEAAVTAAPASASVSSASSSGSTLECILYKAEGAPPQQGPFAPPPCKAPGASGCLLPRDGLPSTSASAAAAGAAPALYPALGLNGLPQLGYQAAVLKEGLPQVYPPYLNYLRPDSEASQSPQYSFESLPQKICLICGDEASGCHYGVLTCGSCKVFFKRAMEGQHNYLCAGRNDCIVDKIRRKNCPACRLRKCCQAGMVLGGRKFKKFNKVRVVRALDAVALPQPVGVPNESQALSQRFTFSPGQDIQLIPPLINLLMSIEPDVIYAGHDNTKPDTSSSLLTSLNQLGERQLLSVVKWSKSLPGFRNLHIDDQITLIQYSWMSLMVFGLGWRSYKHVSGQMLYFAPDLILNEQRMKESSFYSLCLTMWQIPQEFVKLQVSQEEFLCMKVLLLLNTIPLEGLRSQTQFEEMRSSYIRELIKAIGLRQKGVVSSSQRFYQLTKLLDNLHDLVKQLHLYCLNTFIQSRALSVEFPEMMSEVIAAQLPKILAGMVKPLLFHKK
The experiment is described as follows: Binding affinity at human PR.

Each structure is given as a SMILES string.

On to `CC1(C)C(=O)N(c2ccc(C#N)c(C(F)(F)F)c2)C(=O)N1CCCCO` [RU-58841], for which, in the experiment on Syrian golden hamster, the Activity is 95%. On to `N#Cc1ccc(-c2ccc(O)cc2)cc1C(F)(F)F`, for which the IC50 (as a rule, the concentration at which inhibition is half-maximal) at Androgen receptor [1] is 61.2 nM; at Androgen receptor [2], 11.9 nM; at Progesterone receptor it was more than 10000 nM. In the same order, the values of `COc1ccccc1-c1ccc(C#N)c(C(F)(F)F)c1` are 37 nM, 20.1 nM and 3250 nM.

Take `N#Cc1ccc(-c2ccccc2O)cc1C(F)(F)F`: the IC50 amounted to 39.9 nM on Androgen receptor [1], 0.02 nM against Androgen receptor [2] and 4450 nM on Progesterone receptor. The molecule further had an Activity with Syrian golden hamster of 86%. With `N#Cc1ccc(-c2ccccc2C(F)(F)F)cc1C(F)(F)F`, the IC50 at Androgen receptor [1] is 10.9 nM; against Androgen receptor [2] it was more than 1 nM. In the same order, the values of `COc1cccc(OC)c1-c1ccc(C#N)c(C(F)(F)F)c1` are 14.7 nM and 399 nM.

Regarding `COc1ccc(-c2ccc(C#N)c(C(F)(F)F)c2)cc1`, the IC50 on Androgen receptor [1] is 56.7 nM; against Androgen receptor [2] it was 0.8 nM; at Progesterone receptor, 5520 nM. Consider `Cc1ccc(-c2ccc(C#N)c(C(F)(F)F)c2)cc1`, for which the IC50 at Androgen receptor [1] was 200 nM; on Androgen receptor [2], 843 nM. For `N#Cc1ccc(-c2ccccc2OCCO)cc1C(F)(F)F`, the IC50 at Androgen receptor [1] amounted to 1540 nM. With `COCCOc1ccccc1-c1ccc(C#N)c(C(F)(F)F)c1`, the IC50 on Androgen receptor [1] was found to be 2230 nM.

For `N#Cc1ccc(-c2c(O)cccc2O)cc1C(F)(F)F`, on Androgen receptor [1], the IC50 worked out at 989 nM. `Cc1ccccc1-c1ccc(C#N)c(C(F)(F)F)c1`: the IC50 on Androgen receptor [1] was 146 nM; at Androgen receptor [2] it was more than 1000 nM. For `N#Cc1ccc(-c2ccccc2OCC(=O)O)cc1C(F)(F)F`, the IC50 on Androgen receptor [1] is more than 10000 nM. Turning to `N#Cc1ccc(-c2ccccc2Cl)cc1C(F)(F)F`, the IC50 at Androgen receptor [1] was determined as 9.8 nM. For the molecule `N#Cc1ccc(-c2cccc(O)c2)cc1C(F)(F)F`, the IC50 on Androgen receptor [1] came out at 229 nM. Same read-out and setting: to `COCCOCCOc1ccccc1-c1ccc(C#N)c(C(F)(F)F)c1` belongs 8140 nM. On to `COc1cccc(-c2ccc(C#N)c(C(F)(F)F)c2)c1`, for which the IC50 at Androgen receptor [1] was 955 nM; against Androgen receptor [2], 140 nM; at Progesterone receptor it was 9460 nM. As for `Cc1cccc(-c2ccc(C#N)c(C(F)(F)F)c2)c1`, at Androgen receptor [1], the IC50 is 1900 nM. The same measure, in the same setting: to `COC(=O)COc1ccccc1-c1ccc(C#N)c(C(F)(F)F)c1` belongs 1310 nM.
